Source: publication PMC12040169 (PLOS Biology, 2025)

Experiment: in vitro
Conditions: human, hela cells, % viability

SMILES	viability at 28.5 h, 10 µM [%]
c1ccc(CSc2nnc3[nH]c4ccccc4n23)cc1 [CBK267841]	91.9
CCN1CCN(CCNC(=O)Nc2ccccc2C)CC1 [CBK267842]	108
O=C(Nc1ccc(OCc2nc3ccccc3s2)cc1)c1cccc(I)c1 [CBK267843]	119
COc1ccc(-c2nc(=S)c3c(n2CCCN(C)C)CC(C)(C)OC3)cc1 [CBK267844]	104
CCN1CCCC1Cn1c(=S)[nH]c2ccccc2c1=O (centres unmarked) [CBK267849]	92.8
O=C(CN1CCN(Cc2ccccc2)CC1)Nc1cccc(Cl)c1 [CBK267850]	113
CS(=O)(=O)Nc1ccc(C(=O)Nc2ccc(S(=O)(=O)Nc3nccs3)cc2)cc1 [CBK267856]	97.3
CC(=O)Nc1ccc(OCC(O)CNC2CCCC2)cc1 (centres unmarked) [CBK267857C]	87.6
COc1ccc(NC(=S)NC(=N)N2CCN(Cc3ccccc3)CC2)cc1 [CBK267858]	95.1
COc1ccc(C)cc1S(=O)(=O)N(C)CC(=O)O [CBK267863]	106
Cc1ccc(CSCCNS(=O)(=O)c2cccc([N+](=O)[O-])c2)cc1 [CBK267864]	108
COc1ccc(C(C)(C)C)cc1S(=O)(=O)NC1CC(C)(C)NC(C)(C)C1 [CBK267865]	102
O=C(CSc1nnc(COc2ccccc2)o1)c1cccc([N+](=O)[O-])c1 [CBK267868]	104
CC(NS(=O)(=O)c1cc(Cl)ccc1Cl)C(=O)Nc1ccccc1 (centres unmarked) [CBK267871]	110
O=C(CSc1nnc(-c2ccccc2O)n1-c1ccccc1)Nc1ccc(N2CCOCC2)cc1 [CBK267874]	103
Nc1n[nH]c(SCC(=O)Nc2ccc(Br)cc2Cl)n1 [CBK267875]	95.3
O=C(Nc1ccc2oc(-c3cccnc3)nc2c1)c1sc2cc(Cl)ccc2c1Cl [CBK267876]	97.4
N=C(NC(=S)Nc1ccccc1)N1CCN(Cc2ccccc2)CC1 [CBK267878]	106
COc1ccc(C)cc1S(=O)(=O)NCCO [CBK267881]	98.4
COc1ccc(S(=O)(=O)N(C)CC(=O)Nc2cccc(F)c2)cc1Cl [CBK267882]	90
CCOc1ccc(-c2cn(S(=O)(=O)c3cccc4nsnc34)nc2N)cc1 [CBK267883]	102
CN1CCN(C2=NC(=O)CC(C(=O)Nc3ccccc3)N2)CC1 (centres unmarked) [CBK267884]	97.1

SMILES	viability at 28.5 h, 10 µM [%]
O=C(O)CCc1ccc(-c2cccs2)n1CCOc1ccccc1Cl [CBK267885]	89
Cc1ccc(N(C(C)C(=O)Nc2ccccc2-c2ccccc2)S(C)(=O)=O)cc1 (centres unmarked) [CBK267889]	105
Cc1cc(C)cc(OCc2nnc(SCC(=O)Nc3cc(C(F)(F)F)ccc3Cl)o2)c1 [CBK267890]	94.6
O=C(Cn1ncc2ccccc2c1=O)NNC(=S)NC1CC2CCC1C2 (centres unmarked) [CBK267892]	106
CN1CCN(c2ccccc2NC(=O)c2cccc3c(Br)cccc23)CC1 [CBK267894]	92.9
CCn1cc(C(=O)O)c(=O)c2cnc(N3CCN(C(=S)Nc4ccc5c(c4)OCCO5)CC3)nc21 [CBK267895]	95.8
O=C(NCc1ccccc1)c1ccc(NC(=O)c2cc(-n3cnnc3)ccc2Cl)cc1 [CBK267896]	99.2
N#C/C(=C\c1cn(CCC(N)=O)c2ccccc12)Sc1nc2ccccc2s1 [CBK267897]	103
O=C(CSc1nnnn1C1CC2CCC1C2)Nc1ccnc2ccccc12 (centres unmarked) [CBK267901]	89.4
C/C(N)=C(/C#N)C(NC(=O)C1CCCCC1)(C(F)(F)F)C(F)(F)F [CBK267902]	91.1
O=C1c2ccccc2S(=O)(=O)N1CC(O)Cn1ccc2ccccc21 (centres unmarked) [CBK267905]	97.6
COc1cccc(CNc2ccc(S(N)(=O)=O)cc2)c1OCc1ccccc1F [CBK267906]	108
COc1cc(S(=O)(=O)NC2CC(C)(C)NC(C)(C)C2)ccc1Br [CBK267908]	87.4
CN1CCN(c2ccccc2NC(=S)NC(=O)c2ccco2)CC1 [CBK267909]	85.2
Cc1nnc(NCCN2CCOCC2)nc1O [CBK267912]	98.5
CC(CCc1ccccc1)NC(=O)CCC(=O)O (centres unmarked) [CBK267918]	86.6
CC(C)NS(=O)(=O)c1ccc(OCC(=O)Nc2ccc3c(c2)OCO3)c(Cl)c1 [CBK267919]	92.5
CC(C)NS(=O)(=O)c1ccc(NC(=O)COc2ccc3ccccc3c2Br)cc1 [CBK267920]	94.3
Cc1ccc(OCCSc2nnc3[nH]c4ccccc4n23)cc1 [CBK267922]	96.2
Cc1cc(Cn2ccc(C(F)(F)F)n2)c(C)c(-c2c(C#N)c(N)nc3c2CCCCC3)c1 [CBK267928]	104
CS(=O)(=O)N(CC(=O)Nc1ccccc1C(=O)N1CCOCC1)c1ccc(F)c(Cl)c1 [CBK267931]	98.1
Cc1[nH]c2ccccc2c1C(=O)CSc1nc2scc(-c3ccco3)c2c(=O)n1-c1ccccc1 [CBK267933]	93.3

SMILES	viability at 28.5 h, 10 µM [%]
CS(=O)(=O)N1CCN(c2ccc(NC(=O)CSc3nc(-c4ccccc4)cs3)cc2)CC1 [CBK267934]	91.2
CC(=O)Nc1ccc(S(=O)(=O)NC2(C(F)(F)F)C(=O)Nc3c2c(=O)[nH]c(=O)n3CCc2ccccc2)cc1 (centres unmarked) [CBK267937]	104
CN1CCN(c2ccccc2NC(=O)CSc2ccc(Cl)cc2)CC1 [CBK267941]	98.9
Nn1c(SCCCCSc2nnc(C(F)(F)F)n2N)nnc1C(F)(F)F [CBK267946]	98.8
COc1ccc(-c2cc3ccc(OC(C)C(=O)O)cc3oc2=O)cc1 (centres unmarked) [CBK267947]	101
Cc1ccccc1NS(=O)(=O)c1ccc(OCC(=O)N2CCN(C)CC2)cc1 [CBK267948]	88.4
Cc1ccc(C)c(N2CCN(CCCNC(=S)Nc3ccc(Cl)cc3Cl)CC2)c1 [CBK267951]	99.6
O=C(Nc1nc2n(n1)C(c1ccc(F)cc1)CC(c1ccccc1)N2)c1cccnc1 (centres unmarked) [CBK267953]	88.9
O=C(O)CCc1ccc(-c2ccccc2)n1CC1CCCO1 (centres unmarked) [CBK267955]	102
C=CCn1c(SCC(=O)N2CCN(c3ccccc3)CC2)nnc1-c1ccc(N)cc1 [CBK267956]	99.8
O=C(c1ccc(NS(=O)(=O)c2ccccc2)cc1)N1CCN(Cc2ccc3c(c2)OCO3)CC1 [CBK267957]	102
COc1ccc(S(=O)(=O)N2CCC(C(=O)Nc3ccccc3SC)CC2)cc1C [CBK267960]	96.2
Cc1cccc(OCCCC(=O)Nc2ccc(S(N)(=O)=O)cc2)c1C [CBK267963]	90.8
COCCN1CCn2c(nc3cc(NC(=O)c4cccc([N+](=O)[O-])c4)ccc32)C1 [CBK267965]	98.9
N#C/C(=C\c1cn(CCC(N)=O)c2ccccc12)c1nc2ccccc2[nH]1 [CBK267966]	104
N#CCCn1cc(C(=O)Oc2ccc(-c3ccccc3)cc2)c(-c2cccc([N+](=O)[O-])c2)n1 [CBK267968]	105
CCOC(=O)c1c(NC(=O)CSc2nncn2C)sc(C)c1C [CBK267970]	89.8
CN(C)S(=O)(=O)N(CC(=O)NCc1ccco1)c1ccccc1 [CBK267971]	97.3
O=C(O)C1CCCCC1C(=O)NCCc1ccc(Cl)cc1 (centres unmarked) [CBK267972]	98.5
CCCc1oc(C(=O)O)cc1CN1CCCCC1 [CBK267973C]	99
CN1CCN(Cc2c(O)ccc3cc(-c4ccc(F)cc4)c(=O)oc23)CC1 [CBK267976]	111
Oc1ccc(CN2CCN(c3ccc(F)cc3)CC2)c2cccnc12 [CBK267985]	117

SMILES	viability at 28.5 h, 10 µM [%]
Cn1c2ccccc2c2nnc(SCCc3ccccc3)nc21 [CBK267986]	109
COCCN1CCn2c(nc3cc(NC(=O)c4ccco4)ccc32)C1 [CBK267990]	88.2
S=C(Nc1ccccc1)N(Cc1ccccc1)Cc1ccncc1 [CBK267991]	96.8
Cc1cccc(C(C)C)c1NC(=O)C1Cc2ccccc2CN1S(=O)(=O)c1ccc(F)cc1 (centres unmarked) [CBK267992]	101
COc1cccc(/C=C(/C#N)c2ccc(F)cc2)c1OCc1cccc(C(=O)O)c1 [CBK267993]	102
CN(C)S(=O)(=O)N(CC(=O)N1CCN(Cc2ccc3c(c2)OCO3)CC1)c1ccccc1 [CBK267994]	102
COc1ccc(S(=O)(=O)N(CC(=O)O)C2CCCCC2)cc1Cl [CBK267997]	81.5
Cc1cccc(C)c1N1CCN(CCn2c(=S)[nH]c3ccccc3c2=O)CC1 [CBK267998]	89.9
Nc1ccc(S(=O)(=O)NC2(C(F)(F)F)NC(=O)N(c3ccccc3Cl)C2=O)cc1 (centres unmarked) [CBK268003]	107
COc1cccc(C(=O)Nc2cc3c(cc2C(O)c2ccccc2Cl)OCCO3)c1 (centres unmarked) [CBK268004]	99.3
O=C(Nc1cccc2cccnc12)c1ccc([N+](=O)[O-])o1 [CBK268007]	61.1
O=C(CSc1nnc(Cc2ccccc2)o1)N1c2ccccc2Sc2ccccc21 [CBK268008]	96.4
CCOc1c(Br)cc(CNc2nc[nH]n2)cc1OC [CBK268009]	104
Cc1ccc(Cl)c(N2CCN(CCCn3c(=S)[nH]c4ccccc4c3=O)CC2)c1 [CBK268011]	90
Cc1cc(C)cc(OCc2nnc(SCC(=O)N3CCN(c4ccccc4)CC3)o2)c1 [CBK268012]	96.7
O=S(=O)(NCCSc1nnnn1-c1ccccc1)c1cccs1 [CBK268013]	112
Nc1cc(O)nc(SCC(=O)N2CCN(C(c3ccccc3)c3ccccc3)CC2)n1 [CBK268014]	94
O=C(O)CN(c1ccc2c(c1)OCCO2)S(=O)(=O)c1ccccc1 [CBK268017]	115
O=C(CSc1nc(-c2cccc([N+](=O)[O-])c2)cs1)NCC1CCCO1 (centres unmarked) [CBK268020]	92.8
CCn1c(SCC(=O)Nc2ccc(OC)c(Cl)c2)nnc1-c1ccccc1O [CBK268021]	101
